For the test, the target named is T1, human recombinant heparanase (h-hpa) (Homo sapiens, UniProt Q9Y251).
T1 sequence (Q9Y251 158-543 limits assumed): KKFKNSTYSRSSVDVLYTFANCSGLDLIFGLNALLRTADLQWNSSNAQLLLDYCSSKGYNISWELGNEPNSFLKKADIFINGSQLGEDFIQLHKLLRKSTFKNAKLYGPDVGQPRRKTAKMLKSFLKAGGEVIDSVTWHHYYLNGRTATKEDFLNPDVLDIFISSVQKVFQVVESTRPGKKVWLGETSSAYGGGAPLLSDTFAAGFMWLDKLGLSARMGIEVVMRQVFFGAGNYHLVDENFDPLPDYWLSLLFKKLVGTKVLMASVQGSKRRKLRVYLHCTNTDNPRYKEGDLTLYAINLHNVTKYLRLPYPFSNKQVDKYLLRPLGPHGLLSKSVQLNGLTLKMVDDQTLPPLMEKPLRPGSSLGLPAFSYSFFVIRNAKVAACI
T1 sequence (Q9Y251 36-109 limits assumed): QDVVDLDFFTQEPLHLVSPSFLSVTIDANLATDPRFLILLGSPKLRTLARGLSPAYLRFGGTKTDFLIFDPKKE
As to the kind of experiment: In vitro dimethylmethylene blue (DMB) assay for heparanase activity.

SMILES strings stand for the structures.

Usually IC50 stands for the concentration that gives 50% inhibition.

Procedure: (a) In Vitro Dimethylmethylene Blue (DMB) Assay for Heparanase Activity
Heparin Sepharose CL-6B beads were added up to the top of the wells of a multiscreen column loader (Millipore). A 96-well multiscreen plate containing 0.65 μm hydrophilic, low protein binding, Durapore membrane (Millipore) was placed, upside down, on top of the multiscreen column loader. The column loader and the multiscreen plate were held together, turned over, and the beads were uniformly transferred from the column loader to the multiscreen plate (Millipore, MADVM 650). Double-distilled water (DDW) was then added to the beads, which were allowed to swell for one minute, and then washed (three times) with DDW under vacuum. Heparin concentration was estimated to be 10 μM/well.
To each well, phosphate-buffered saline (PBS) containing 1% bovine serum albumin (BSA; 70 μl/well) and DMB (32 mg of DMB were dissolved in 5 ml ethanol, diluted to 1 liter with formate buffer containing 4 g sodium formate and 4 ml formic acid; 120 μl/well) were added. Color was developed after 5 minutes, and the absorbance of the samples was determined using a microplate reader (Spectra Max, Molecular Devices) at 530 nm with 570 nm as reference. The absorbance correlated to heparanase activity. As a control, heparanase was added to the heparin Sepharose swollen beads in the multiscreen plate and the heparanase reaction products were filtered immediately thereafter and the absorbance of these control samples was subtracted from all other samples.
The cell extracts were centrifuged and resuspended in 20 mM phosphate citrate buffer, pH 5.4 containing 50 mM NaCl. The cells were lysed by three cycles of freezing and thawing. The cell lysates were centrifuged (10000×g for 5 min), supernatants were collected and then assayed for heparanase activity using the DMB assay.
The partially purified human recombinant heparanase or the crude cell extracts expressing either human or mouse recombinant heparanase were added for a 3-hour incubation and the reaction continued as described above. Absorbance of the developing color was measured as described above.

Turning to `CCCCCCCCCCCC1OC1CCCCC(=O)On1nnc2ccccc2c1=O` (centres unmarked) [Compound 99], the IC50 is 16000 nM. For the compound `CCCCCCCCCCCCC/C=C/CC(O)(C(=O)Cc1cc(C(=O)O)ccc1Oc1cc(C(=O)O)cc(C(=O)O)c1)C(F)(F)F` (centres unmarked) [Compound 98], the IC50 turned out to be 1500 nM. Consider `CCCCCCCCCCCCCCCCCC(=O)Nc1cc(C(=O)O)ccc1Oc1cc(C(=O)O)cc(C(=O)O)c1` [Compound 61], for which the IC50 was 2000 nM. The figure for `CCCCCCCCCCCCCCCCCCN(C)c1ccc(S(=O)(=O)O)cc1NC(=O)c1cc(/N=N/c2c(Cl)cccc2Cl)c2ccccc2c1O` [Compound 53] is 400 nM.

Take `CCCCCCCCCCCC1OC1CCCCC(=O)Nc1cc(C(=O)O)ccc1Oc1cc(C(N)=O)cc(C(N)=O)c1` (centres unmarked) [Compound 96]: the IC50 was 1600 nM.

For the compound `CCCCCCCCCCCCCCCCCCN(C)c1ccc(S(=O)(=O)O)cc1NC(=O)c1cc(/N=N/c2cccc(NS(C)(=O)=O)c2)c2ccccc2c1O` [Compound 47], the IC50 worked out at 250 nM. With `CCCCCCCCCCCCCCCCn1c(/N=C/c2cc(Cl)cc(Br)c2O)nc2ccccc21` [Compound 58], the IC50 was 3000 nM. Consider `CCCCCCCCCCCCCCCCn1c(/N=C/c2c(O)ccc3cc([N+](=O)[O-])ccc23)nc2ccccc21` [Compound 57], for which the IC50 worked out at 7800 nM. With `CCCCCCCCCCCCCCCCCCNC(=O)C1CC(=O)N(c2ccc(Oc3ccc(C(N)=O)cc3)c(S(=O)(=O)O)c2)C1` (centres unmarked) [Compound 106, 2-(4-amido-phenoxy)-5-(4-octadecyl-carbamoyl-2-oxo-pyrrolidin-1-yl)-benzene sulfonic acid], the IC50 came out at 300 nM. For `CCCCCCCCCCCCCCCCCCN(C)c1ccc(S(=O)(=O)O)cc1NC(=O)c1cc(/N=N/c2cc(-c3ccccc3)ccc2O)c2ccccc2c1O` [Compound 34] the value was 310 nM.

With `CCCCCCCCCCCCCCCCCC(=O)NC1=NN(c2ccc(Oc3ccccc3)c(S(=O)(=O)O)c2)C(=O)C1/N=N/c1ccc(O)c(C(=O)O)c1` (centres unmarked) [Compound 20], the IC50 worked out at 190 nM.

With `CCCCCCCCCCCCCCCCCCN(C)c1ccc(C(=O)O)cc1NC(=O)c1cc(/N=N/c2cc(C(=O)O)ccc2O)c2ccccc2c1O` [Compound 50], the IC50 is 4500 nM. As to `CCCCCCCCCCCCCCCCCC1=NN(c2ccc(Oc3ccccc3)c(S(=O)(=O)O)c2)C(=O)C1/N=N/c1ccc(S(=O)(=O)O)cc1` (centres unmarked) [Compound 25], the IC50 stood at 270 nM. Regarding `CCCCCCCCCCCCCCCCCCN(C)c1ccc(S(=O)(=O)O)cc1NC(=O)c1cc(S(=O)(=O)O)c2ccccc2c1O` [Compound 41], the IC50 stood at 490 nM. For the compound `CCCCCCCCCCCCCCCCCC1=NN(c2nc3cc(C(=O)O)cc(C(=O)O)c3s2)C(=O)C1` [Compound 39], the IC50 was 2800 nM. As to `CCCCCCCCCCCCCCCCCCNC(=O)Nc1ccc(S(=O)(=O)O)cc1` [Compound 70], the IC50 amounted to 7000 nM.

As to `CCCCCCCCCCCCCCCCCCN(C)c1ccc(S(=O)(=O)O)cc1NC(=O)c1cc(O)c2ccccc2c1` [Compound 77], the IC50 came to 340 nM. `CCCCCCCCCCCCCCCCCC1=NN(c2nc3ccc(S(=O)(=O)O)cc3[nH]2)C(=O)/C1=N\c1ccc(N(CC)CC)cc1` [Compound 38]: the IC50 was found to be 1450 nM.

For `CCCCCCCCCCCCCCCCCCNC(=O)C1CC(=O)N(c2ccc(Oc3ccc(S(=O)(=O)O)cc3)c(S(=O)(=O)O)c2)C1` (centres unmarked) [Compound 104], the IC50 is 470 nM.

As to `CCCCCCCCCCCCCCCCCCOc1ccc(C(=O)CC(=O)Nc2ccc(Sc3ccccc3C(=O)O)c(C(=O)O)c2)cc1` [Compound 44], the IC50 came out at 210 nM.

`CCCCCCCCCCCCCCCCCC(=O)Nc1ccc(C(=O)NC2=NN(c3ccc(Oc4ccccc4)c(S(=O)(=O)O)c3)C(=O)C2/N=N/c2ccc(NS(=O)(=O)c3ccc(C)cc3)cc2)cc1` (centres unmarked) [Compound 27]: the IC50 is 270 nM. With `CCCCCCCCCCCCCCCCCC1=NN(c2ccc(Oc3ccccc3)c(S(=O)(=O)O)c2)C(=O)C1/N=N/c1ccc(O)c(C(=O)O)c1` (centres unmarked) [Compound 21], the IC50 amounted to 310 nM. The figure for `CCCCCCCCCCCC(=O)NC1=NN(c2ccc(Oc3ccccc3)c(S(=O)(=O)O)c2)C(=O)C1` [Compound 71] is 2650 nM. On to `CCCCCCCCCCCCCCCCCC(=O)Nc1ccc(NC(=O)c2cc(/N=N/c3cc(C(=O)O)c(O)cc3O)c3ccccc3c2O)cc1S(=O)(=O)O` [Compound 40], for which the IC50 was found to be 230 nM. On to `CCCCCCCCCCCCCC(=O)NC1=NN(c2ccc(Oc3ccccc3)c(S(=O)(=O)O)c2)C(=O)C1` [Compound 83], for which the IC50 stood at 400 nM. Consider `CCCCCCCCCCCCCCCCCC1=Nn2c(nc3cc(C(=O)O)ccc32)C1S(=O)(=O)O` (centres unmarked) [Compound 36], for which the IC50 came out at 1420 nM. The figure for `CCCCCCCCCCCCCCCC[n+]1ccc(C=NO)cc1` [Compound 80] is 17000 nM; for `CCCCCCCCCCCCCCCCCCNC(=O)C1CC(=O)N(c2ccc(Oc3ccc(S(=O)(=O)O)cc3)cc2)C1` (centres unmarked) [Compound 103] it is 7700 nM; for `CCCCCCCCCCCCCCCCCCCCC1=NN(c2ccc(S(=O)(=O)O)cc2N)C(=O)C1` [Compound 14] it is 870 nM. For `CCCCCCCCCCCCCCCCOc1ccc(S(=O)(=O)O)cc1C(=O)O` [Compound 88], the half-inhibitory concentration (IC50) was 4400 nM. As to `CCCCCCCCCCCCCCCCCCN(C)c1ccc(S(=O)(=O)O)cc1NC(=O)c1cc(/N=N/c2ccc(NS(=O)(=O)c3ccc(C)cc3)cc2)c2ccccc2c1O` [Compound 45], the IC50 came out at 500 nM. Consider `CCCCCCCCCCCCCCCCCCOc1ccc(S(=O)(=O)N/N=C2\N(CC)c3ccccc3C2(C)C)cc1C(=O)O` [Compound 48], for which the IC50 was 950 nM. For `CCCCCCCCCCNCC(O)Cn1c2ccc(Cl)cc2c2cc(Cl)ccc21` (centres unmarked) [Compound 68] the value was 6800 nM; for `CCCCCCCCCCCCCCCCCCn1c(C)nc2cc(S(=O)(=O)O)ccc21` [Compound 73], 1400 nM.

For `CCCCCCCCCCCCCCCCCCN1/C(=C/C=C/c2oc3ccccc3[n+]2CCCCCCCCCCCCCCCCCC)Oc2ccccc21` [Compound 66], the IC50 worked out at 1000 nM.

Take `CCCCCCCCCCCCCCCCCC1=NN(c2ccc(-c3nc4cc(S(=O)(=O)O)ccc4s3)cc2)C(=O)/C1=N\c1ccc(N(CC)CC)cc1` [Compound 37]: the IC50 is 1500 nM. As for `CCCCCCCCCCCCCCCCCCNC(=O)C1CC(=O)N(c2ccc(Oc3ccc(Br)cc3)c(S(=O)(=O)O)c2)C1` (centres unmarked) [Compound 105], the IC50 stood at 860 nM. `CCCCCCCCCCCCCCCCS(=O)(=O)c1ccc(N2N=C(NC(=O)c3ccccc3S(=O)(=O)O)C(/N=N\c3ccc(O)cc3Cl)C2=O)cc1` (centres unmarked) [Compound 54]: the IC50 came out at 200 nM.

As to `CCCCCCCCCCCCCCCCCCn1c(-c2ccc3ccccc3c2O)nc2cc(S(=O)(=O)O)ccc21` [Compound 42], the IC50 stood at 480 nM.

For `CCCCCCCCCCCCCCCCCCn1c(-c2ccccc2)nc2cc(S(=O)(=O)O)ccc21` [Compound 102], the IC50 came to 630 nM. For the compound `CCCCCCCCCCCCCCCCCCNC(=O)C1CC(=O)N(c2ccc(Oc3ccc(C(=O)O)cc3)c(S(=O)(=O)O)c2)C1` (centres unmarked) [Compound 107, 2-(4-carboxy-phenoxy)-5-(4-octadecyl-carbamoyl-2-oxo-pyrrolidin-1-yl)-benzene sulfonic acid], the IC50 was determined as 330 nM. With `CCCCCCCCCCCCCCCCS(=O)(=O)c1ccc(S(=O)(=O)O)cc1C(=O)O` [Compound 89], the IC50 stood at 5500 nM. Turning to `CCCCCCCCCCCCCCCC(=O)OC[C@H](O)C1OC(=O)C(O)=C1O` (some centres unmarked) [Compound 78], the IC50 worked out at 9000 nM. For `CCCCCCCCCCCCCCCCCCNc1ccc(C(=O)O)cc1NC(=O)c1cc(/N=N/c2ccc(NS(=O)(=O)c3ccc(C)cc3)cc2C)c2ccccc2c1O` [Compound 63] the value was 16800 nM. For `CCCCCCCCCCCCCCCCCCOc1ccccc1C(=O)CC(=O)Nc1cc(NS(=O)(=O)c2cc(C(=O)O)cc(C(=O)O)c2)ccc1Cl` [Compound 64] the value was 290 nM; for `CCCCCCCCCCCCCCCCCC[n+]1c2cc(N(C)C)ccc2cc2ccc(N(C)C)cc21` [Compound 79], 1600 nM; for `CCCCCCCCCCC/C=C\CCCCC(=O)Nc1cc(C(=O)O)ccc1Oc1cc(C(=O)O)cc(C(=O)O)c1` [Compound 86], 2000 nM.

For `CCCCCCCCCCCCCCCCCC1=NN(c2ccc(Oc3ccccc3)c(S(=O)(=O)O)c2)C(=O)C1/N=N/c1cccc(C(=O)O)c1` (centres unmarked) [Compound 11], the IC50 was determined as 180 nM. Consider `CCCCCCCCCCCCCCCC1=CN(c2ccc(S(=O)(=O)O)cc2)C(=O)C1` [Compound 75], for which the IC50 came out at 1600 nM. Take `CCCCCCCCCCCCCCCCCC1=NN(c2ccc(Oc3ccccc3)c(S(=O)(=O)O)c2)C(=O)C1/N=N/c1cc(OC)ccc1OC` (centres unmarked) [Compound 8]: the IC50 turned out to be 210 nM. As for `CCCCCCCCCCCCCCCC(=O)NC(CN1CCOCC1)C(O)c1ccccc1` (centres unmarked) [Compound 74], the IC50 worked out at 19000 nM. Turning to `CCCCCCCCCCCC1OC1CCCCC(=O)NC1=NN(c2ccc(Oc3ccccc3)c(S(=O)(=O)O)c2)C(=O)C1` (centres unmarked) [Compound 100], the IC50 stood at 270 nM. Regarding `CCCCCCCCCCCCCCCCCC1=Nn2c(nc3cc(S(=O)(=O)O)ccc32)C1S(=O)(=O)O` (centres unmarked) [Compound 35], the IC50 was 1340 nM. Regarding `CCCCCCCCCCCCCCCCCC/C=C/c1cc(C(=O)O)c2oc3c(C(=O)O)cccc3c2c1` [Compound 90], the IC50 worked out at 8500 nM. Consider `C=CCCCCCCCCC(=O)CCCCCC(=O)Nc1cc(C(=O)O)ccc1Oc1cc(C(=O)O)cc(C(=O)O)c1` [Compound 94], for which the IC50 stood at 18000 nM. The figure for `CCCCCCCCCCCCCCCCCC1=NN(c2ccc(Oc3ccccc3)c(S(=O)(=O)O)c2)C(=O)C1Br` (centres unmarked) [Compound 6] is 250 nM.

The values above are taken from patent US20070185176A1, “Heparanase inhibitors and uses thereof” (Insight Bioharmaceuticals Ltd., priority 2004, published 2007).
